Measured values reported in paper PMC11672400, “Synthesis, Spectroscopic Characterization, Structural Analysis, and Evaluation of Anti-Tumor, Antimicrobial, and Antibiofilm Activities of Halogenoaminopyrazoles Derivatives” (Antibiotics, 2024).
Values after ≈ are worked out from the molar mass of the structure shown. Like-named read-outs stand apart in the source and are kept apart here.

Columns and labels:
[1] = system: HEp-2 epithelial tumor cells; test: MTT cell viability / anti-tumor activity; settings: Homo sapiens; for viability at 3.1 µg/mL / viability at 6.25 µg/mL / viability at 12.5 µg/mL / viability at 25 µg/mL / viability at 50 µg/mL: read-out: Cell viability on Hep2 cells (%); for IC50: read-out: IC50 µg/mL on HEp-2 Cells 48 h, HEp-2 epithelial tumor cells, MTT, 48 h
Procedure: The cytotoxicity of the halogenoaminopyrazole derivatives 4a–f and 5a–e was tested on L929 mouse fibroblast cells, and their anti-tumor activity was evaluated on the human carcinoma epithelial cell line HEp-2. The experiments were performed in a concentration range of 3.1–50 μg/mL.
The MTT test was used, 3-(4,5-dimethylthiazol-2-yl)-2,5-diphenyl tetrazolium bromide), which is reduced to insoluble purple-blue formazan crystals precipitated by living cells. Cell viability assessed using the MTT assay reflects the activity of mitochondrial enzymes in treated cells compared to the control culture of untreated cells.
To assess the biocompatibility of the substances, a stable mouse fibroblast cell line, NCTC (clone 929), was grown in minimal essential medium (MEM) with 10% fetal bovine serum (FBS) and 2 mM L-glutamine, along with 100 U/mL penicillin, 100 µg/mL streptomycin, and 500 µg/mL neomycin. The concentration of the compounds used was 0.06 g/2 mL DMSO.
In cytotoxicity experiments, compound solutions were utilized at concentrations of 3.1 μg/mL, 6.25 μg/mL, 12.5 μg/mL, 25 μg/mL, and 50 μg/mL. The NCTC cell suspension was placed into 96-well culture plates with a concentration of 4 × 10^4 cells/mL and incubated at 37 °C for 24 h in a 5% CO2 humidified atmosphere. The compounds under study were placed in sets of three at varying concentrations ranging from 3.1 μg/mL to 50 μg/mL in every well, and the plates were then kept under standard conditions for 48 h. Cell viability was determined through the utilization of the MTT assay. Next, the MTT solution was removed, then isopropanol was added to solubilize the formazan crystals. The colored solution was then measured for absorbance at 570 nm using a Berthold Technologies, LB 940 microplate reader (Bad Wildbad, Germany). The outcomes were determined based on Formula (1) while considering that the recorded optical density is directly related to the number of viable cells in the cell culture being examined [35, 36]. % cell viability = (OD sample/OD control) × 100%(1)
For each tested compound, a graph representing percentage cell viability versus concentrations (in the range 3.1–50 µg/mL) was obtained. Then, the IC50 value was calculated by using ED50 plus V1.0 software.

[2] = system: Escherichia coli ATCC25922; test: Antibiofilm assay (crystal violet), MBIC; assay type: cell-based; settings: 37 °C; for minimal effective concentration: Escherichia coli, ATCC25922, 24 h, read-out: Minimum biofilm inhibition concentration (MBIC), Escherichia coli ATCC25922
How it was run: (§1)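 Biofilms grown in nutrient broth with test substances for 24 h at 37 °C. After rinsing with sterile physiological water, attached cells were fixed 5 min with methanol, then crystal violet stained.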

[3] = system: Pseudomonas aeruginosa ATCC27853; test: Antibiofilm assay (crystal violet), MBIC; assay type: cell-based; settings: 37 °C; for minimal effective concentration: Pseudomonas aeruginosa, ATCC27853, 24 h, read-out: Minimum biofilm inhibition concentration (MBIC), Pseudomonas aeruginosa ATCC27853
How it was run: as §1

[4] = system: Staphylococcus aureus ATCC25923; test: Antibiofilm assay (crystal violet), MBIC; assay type: cell-based; settings: 24 h, 37 °C; for minimal effective concentration: Staphylococcus aureus, ATCC25923, read-out: Minimum biofilm inhibition concentration (MBIC), Staphylococcus aureus ATCC25923
How it was run: as §1

[5] = system: Enterococcus faecalis ATCC29212; test: Antibiofilm assay (crystal violet), MBIC; assay type: cell-based; settings: Enterococcus faecalis, ATCC29212, 24 h, 37 °C, read-out: Minimum biofilm inhibition concentration (MBIC), Enterococcus faecalis ATCC29212
How it was run: as §1

[6] = MTT cell viability / cytotoxicity on normal fibroblasts; assay type: cell-based, mouse; settings: mouse
Description: (§2) Merck chemicals were utilized.
(§3) Untreated cells were used as control, considered 100% viable cells.

[7] = system: NCTC (clone 929) mouse fibroblast cells; test: as above; assay type: cell-based; settings: for IC50: Mus musculus, NCTC clone 929, NCTC normal fibroblasts, MTT, 48 h
Description: as §2, §3

[8] = system: Escherichia coli ATCC25922; test: Qualitative evaluation of antimicrobial activity (inhibition zone, spot on agar); assay type: cell-based; design: key: (+) inhibited bacterial growth; (-) did not inhibit bacterial growth; settings: 0.06 g/2 mL DMSO, 5 µL spot
Procedure: (§4) For testing the antimicrobial/antibiofilm activity, the concentration of the studied compounds was identical to 0.06 g/2 mL DMSO. 0.5 Standard McFarland suspension was used, which was inoculated onto Mueller Hinton agar plates, (Remel, Lenexa, KS, USA), 5 µL of each compound was spotted and incubated overnight at 37 °C. Antimicrobial activity was observed as zones of inhibition formed around the spot.

[9] = system: Pseudomonas aeruginosa ATCC27853; test: as above; assay type: cell-based; design: key: (+) inhibited bacterial growth; (-) did not inhibit bacterial growth; settings: 0.06 g/2 mL DMSO, 5 µL spot
Procedure: as §4

[10] = system: Staphylococcus aureus ATCC25923; test: as above; assay type: cell-based; design: key: (+) inhibited bacterial growth; (-) did not inhibit bacterial growth; settings: 0.06 g/2 mL DMSO, 5 µL spot
Procedure: as §4

[11] = system: Enterococcus faecalis ATCC29212; test: as above; assay type: cell-based; design: key: (+) inhibited bacterial growth; (-) did not inhibit bacterial growth; settings: 0.06 g/2 mL DMSO, 5 µL spot
Procedure: as §4

[12] = system: Escherichia coli ATCC25922; test: MIC by serial microdilution in liquid medium; assay type: cell-based; settings: 24 h, 37 °C; for MIC: Escherichia coli, ATCC25922, read-out: Minimum inhibitory concentration, Escherichia coli ATCC25922
How it was run: (§5)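 Twofold serial dilutions from a DMSO stock (10 mg/mL) in Tryptone Soy Broth, inoculated with 10 µL of a 10^6 CFU/mL suspension, incubated 24 h at 37 °C. Growth judged visually and by OD 620 nm; MIC (µg/mL) is the lowest concentration without growth, run in triplicate.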

[13] = system: Pseudomonas aeruginosa ATCC27853; test: MIC by serial microdilution in liquid medium; assay type: cell-based; settings: Pseudomonas aeruginosa, ATCC27853; 24 h, 37 °C; read-out: Minimum inhibitory concentration, Pseudomonas aeruginosa ATCC27853
How it was run: as §5

[14] = system: Staphylococcus aureus ATCC25923; test: MIC by serial microdilution in liquid medium; assay type: cell-based; settings: 24 h, 37 °C; for MIC: Staphylococcus aureus, ATCC25923, read-out: Minimum inhibitory concentration, Staphylococcus aureus ATCC25923
How it was run: as §5

[15] = system: Enterococcus faecalis ATCC29212; test: MIC by serial microdilution in liquid medium; assay type: cell-based; settings: Enterococcus faecalis, ATCC29212; 24 h, 37 °C; read-out: Minimum inhibitory concentration, Enterococcus faecalis ATCC29212
How it was run: as §5

[16] = NCTC clone 929 (L929) mouse fibroblast cells
[17] = read-out: Cell viability on NCTC cells (%)

SMILES	viability at 3.1 µg/mL ([1]; HEp-2, 24 h)	viability at 6.25 µg/mL ([1]; HEp-2, 24 h)	viability at 12.5 µg/mL ([1]; HEp-2, 24 h)	viability at 25 µg/mL ([1]; HEp-2, 24 h)	viability at 50 µg/mL ([1]; HEp-2, 24 h)	viability at 3.1 µg/mL ([1]; HEp-2, 48 h)	viability at 6.25 µg/mL ([1]; HEp-2, 48 h)	viability at 12.5 µg/mL ([1]; HEp-2, 48 h)	viability at 25 µg/mL ([1]; HEp-2, 48 h)	viability at 50 µg/mL ([1]; HEp-2, 48 h)	IC50 ([1]; HEp-2, 48 h)	melting point	minimal effective concentration [2]	minimal effective concentration [3]	minimal effective concentration [4]	minimal effective concentration [5]	IC50 [7]	Qualitative antimicrobial activity, Escherichia coli ATCC25922 [8]	Qualitative antimicrobial activity, Pseudomonas aeruginosa ATCC27853 [9]	Qualitative antimicrobial activity, Staphylococcus aureus ATCC25923 [10]	further results
Cc1nn(CNc2ccc(F)cc2)c(C)c1[N+](=O)[O-] [4a, N-[(3,5-dimetyl-4-nitro-1H-pyrazol-1-yl)-methyl]-4-fluoroaniline]	99.1 ± 3.42%	94.4 ± 1.19%	93.38 ± 0.92%	91.3 ± 3.73%	73.2 ± 2.71%	93.05 ± 0.78%	89 ± 1.5%	83.8 ± 2.3%	72.3 ± 1.99%	36.4 ± 1.45%	40.2 ± 1.26 µg/mL (≈ 152 µM)	117 to 119 °C	930 ± 0.05 µg/mL	930 ± 0.28 µg/mL	230 µg/mL	930 ± 0.27 µg/mL	46.4 ± 1.33 µg/mL (≈ 176 µM)	+	+	+	Minimum biofilm inhibition concentration (MBIC), Staphylococcus aureus ATCC25923 [4]: 230 ± 0.11 µg/mL; viability at 24 h, 3.1 µg/mL [6, 16]: 99.6 ± 1.38%; viability at 24 h, 6.25 µg/mL [6, 16]: 99.3 ± 2.2%; viability at 48 h, 6.25 µg/mL [6, 16]: 111%; viability at 24 h, 12.5 µg/mL [6, 16]: 99 ± 2.51%; viability at 48 h, 12.5 µg/mL [6, 16]: 101 ± 1.48%; viability at 24 h, 25 µg/mL [6, 16]: 90.2 ± 1.71%; viability at 48 h, 25 µg/mL [6, 16]: 73.5 ± 2.96%; viability at 24 h, 50 µg/mL [6, 16]: 62.7 ± 1.88%; viability at 48 h, 50 µg/mL [6, 16]: 47.5 ± 1.31%; Cell viability on NCTC cells (%) ([7]; 6.25 µg/mL, 48h): 109.13±3.80%; Qualitative antimicrobial activity, Enterococcus faecalis ATCC29212 [11]: -; MIC [12]: 930 ± 0.14 µg/mL (≈ 3520 µM); MIC [13]: 930 ± 0.27 µg/mL (≈ 3520 µM); Minimum inhibitory concentration, Staphylococcus aureus ATCC25923 [14]: 230 ± 0.13 µg/mL (≈ 870 µM); MIC [14]: 230 µg/mL (≈ 870 µM); MIC [15]: 930 ± 0.25 µg/mL (≈ 3520 µM)
Cc1nn(CN(Cn2nc(C)c([N+](=O)[O-])c2C)c2ccc(F)cc2)c(C)c1[N+](=O)[O-] [5a, N,N-bis-[(3,5-dimetyl-4-nitro-1H-pyrazol-1-yl)-methyl]-4-fluoroaniline]	90.8 ± 1.1%	104.4 ± 0.32%	96.6 ± 3.1%	82.7 ± 1.85%	57.2 ± 1.13%	90.1 ± 2.22%	85.2 ± 3.13%	80.1 ± 1.54%	67.4 ± 3.23%	38.8 ± 0.71%	40.5 ± 0.79 µg/mL (≈ 97.1 µM)	78 to 80 °C	460 µg/mL	460 µg/mL	230 µg/mL	930 ± 0.14 µg/mL	> 50 µg/mL	+	+	+	Minimum biofilm inhibition concentration (MBIC), Escherichia coli ATCC25922 ([2]; 24 h): 460 ± 0.12 µg/mL; Minimum biofilm inhibition concentration (MBIC), Pseudomonas aeruginosa ATCC27853 ([3]; 24 h): 460 ± 0.12 µg/mL; Minimum biofilm inhibition concentration (MBIC), Staphylococcus aureus ATCC25923 [4]: 230 ± 0.05 µg/mL; viability at 24 h, 3.1 µg/mL [6, 17]: 97.7 ± 1.8%; viability at 48 h, 3.1 µg/mL [6, 17]: 87.19 ± 0.7%; viability at 24 h, 6.25 µg/mL [6, 17]: 98.3 ± 2.22%; viability at 48 h, 6.25 µg/mL [6, 17]: 88.7 ± 2.4%; viability at 24 h, 12.5 µg/mL [6, 17]: 100 ± 2.07%; viability at 48 h, 12.5 µg/mL [6, 17]: 98.2 ± 2.04%; viability at 24 h, 25 µg/mL [6, 17]: 97.4 ± 2.4%; viability at 48 h, 25 µg/mL [6, 17]: 93.7 ± 1.17%; viability at 24 h, 50 µg/mL [6, 17]: 88.6 ± 2.66%; viability at 48 h, 50 µg/mL [6, 17]: 92.5 ± 1.32%; Qualitative antimicrobial activity, Enterococcus faecalis ATCC29212 [11]: -; Minimum inhibitory concentration, Escherichia coli ATCC25922 [12]: 460 ± 0.06 µg/mL (≈ 1100 µM); MIC [12]: 460 µg/mL (≈ 1100 µM); MIC [13]: 460 ± 0.04 µg/mL (≈ 1100 µM); Minimum inhibitory concentration, Staphylococcus aureus ATCC25923 [14]: 460 ± 0.03 µg/mL (≈ 1100 µM); MIC [14]: 460 µg/mL (≈ 1100 µM); MIC [15]: 930 ± 0.06 µg/mL (≈ 2230 µM)
Cc1nn(CN(Cn2nc(C)c([N+](=O)[O-])c2C)c2cccc(Cl)c2)c(C)c1[N+](=O)[O-] [5e, N,N-bis-[(3,5-dimetyl-4-nitro-1H-pyrazol-1-yl)-methyl]-3-chloroaniline]	103.7 ± 0.73%	102.4 ± 0.28%	82.29 ± 0.32%	70.5 ± 0.88%	59.94 ± 0.42%	102.5 ± 0.48%	96.06 ± 0.34%	77.4 ± 0.63%	60.3 ± 0.67%	37.7 ± 0.46%	31.7 ± 0.48 µg/mL (≈ 73.1 µM)	154 to 155 °C	930 ± 0.15 µg/mL	930 ± 0.15 µg/mL	930 ± 0.15 µg/mL	930 ± 0.15 µg/mL	20.3 ± 0.45 µg/mL (≈ 46.8 µM)	-	-	-	viability at 24 h, 3.1 µg/mL [6, 17]: 101.9 ± 0.73%; viability at 48 h, 3.1 µg/mL [6, 17]: 95.71 ± 0.5%; viability at 24 h, 6.25 µg/mL [6, 17]: 98.57 ± 0.27%; viability at 48 h, 6.25 µg/mL [6, 17]: 89.47 ± 0.34%; viability at 24 h, 12.5 µg/mL [6, 17]: 88.26 ± 0.32%; viability at 48 h, 12.5 µg/mL [6, 17]: 69.25 ± 0.3%; viability at 24 h, 25 µg/mL [6, 17]: 77.7 ± 0.88%; viability at 48 h, 25 µg/mL [6, 17]: 40.3 ± 0.68%; viability at 24 h, 50 µg/mL [6, 17]: 65.79 ± 0.42%; viability at 48 h, 50 µg/mL [6, 17]: 26.4 ± 0.46%; Qualitative antimicrobial activity, Enterococcus faecalis ATCC29212 [11]: -; MIC [12]: 1870 ± 0.08 µg/mL (≈ 4310 µM); MIC [13]: 1870 ± 0.04 µg/mL (≈ 4310 µM); MIC [14]: 930 ± 0.04 µg/mL (≈ 2140 µM); MIC [15]: 1870 ± 0.09 µg/mL (≈ 4310 µM)
